Measured values reported in patent publication US20030044400A1, “Composition and method for treating cells” (priority 2001, published 2003).

Tests used:
Calu-1 cells = experiment: Fetuin-induced apoptosis, Hoechst staining confirmed by MTS assay; type: cell-based, Human
Procedure: (§1) The purified fetuin was tested on various cancer cell lines. […] The DNA condensation and breakage of nuclei which are the characteristics for apoptosis were observed by staining the cell with Hoechst dye at 0.1 ug/ml.
(§2) Various concentrations of Zn-charged fetuin prepared as described were incubated with cell lines for 6 hr. Percent of cell under apoptosis was determined by Hoechst staining and confirmed by MTS assay. The concentration of Zn-charged fetuin for the induction of 50% of cells under apoptosis (LD50) was determined. Each data represents the average of three assays.

[1] = tested on: CCD 18 Co (normal colon fibroblast); experiment: as above; type: cell-based, Human
Procedure: as §1, §2

[2] = tested on: WI 38 (normal lung fibroblast); experiment: as above; type: cell-based, Human
Procedure: as §1, §2

Colo 205 cells = experiment: as above; type: cell-based, Human
Procedure: as §1, §2

HL-60 cells = experiment: as above; type: cell-based, Human
Procedure: as §1, §2

P388 leukemia = experiment: P388 Leukemia Model; type: in vivo; details: P388-bearing DBA/2 mice; for Survivors: 10 per group
Procedure: All mice used were kept according to NIH standard regulation. The DBA/2 mice were divided into 4 groups, 10 mice in each group. The P388 innoculum tumor was induced by intraperitoneal injection of 10^6 cells per 0.1 ml innoculum. All doses were made up to a volume of 0.5 ml. Treatment was intraperitoneal injection of 0.5 ml saline (control), 0.002 ml of 10 mg/ml Fetuin (Group I), 0.02 ml (Group II) and 0.2 ml (Group III) for 10 days following tumor transplant. Mortalities were recorded daily. Results are expressed as the percent increase in life span (ILS) in Table 2.
ILS=100×Median Life Span Treated−Median Life Span Control

normal cell lines = experiment: Apoptosis in normal cell lines; type: cell-based; details: in 2-3 days
[3] = tested on: immune system (splenic T- and B-cells, response to SRBC); details: mouse, in vivo
Procedure: The Balb/C mice weighed 20-30 g with six to eight weeks of age and divided equally between male and female are used. Fetuin is administered IV or IP to each group of six animals either a single dose or multiple doses ranging from 0.05 mg to 5 mg per 20 g body weight. The volume of each injection is 0.2 ml. Phosphate buffered saline is used as the control and dilution vehicle.
Flow cytometric characterization of splenic T- and B-cells in Fetuin treated mice: T cells of mice can be recognized by the presence of Thy 1.2 or Thy 1.1 (depending on the genotype of the mouse), receptors isolated on the surface of peripheral T cells (lymph node, spleen and blood) as well as thymic epithelia.

[4] = Zn-charged fetuin, 6 hr, average of three assays
[5] = purified fetuin, Hoechst dye 0.1 ug/ml

Fetuin: Fetal bovine fetuin purified from fetal bovine serum by modified Spiro method; 60 Kd glycoprotein, homologue of alpha 2-HS glycoprotein
LD50 of Fetuin-induced Apoptosis (Calu-1 cells; [4]): 4 µM
induction of apoptosis (Calu-1 cells; [5]): strongly induced apoptosis
LD50 of Fetuin-induced Apoptosis ([1]; CCD 18 Co, Zn-charged fetuin, 6 hr, average of three assays): >100 µM
induction of apoptosis ([1]; CCD18Co, purified fetuin, Hoechst dye 0.1 ug/ml): did not induce apoptosis
LD50 of Fetuin-induced Apoptosis ([2]; WI 38, Zn-charged fetuin, 6 hr, average of three assays): >100 µM
induction of apoptosis ([2]; WI-38, purified fetuin, Hoechst dye 0.1 ug/ml): did not induce apoptosis
LD50 of Fetuin-induced Apoptosis (Colo 205 cells; [4]): 5 µM
induction of apoptosis (Colo 205 cells; [5]): strongly induced apoptosis
LD50 of Fetuin-induced Apoptosis (HL-60 cells; HL-60, Zn-charged fetuin, 6 hr, average of three assays): 5 µM
induction of apoptosis (HL-60 cells; HL-60, purified fetuin, Hoechst dye 0.1 ug/ml): strongly induced apoptosis
apoptosis of HL-60 cells (HL-60 cells; at 1 uM): induce apoptosis
Survivors (P388 leukemia; 0.002 ml of 10 mg/ml Fetuin ip for 10 days, bracket (31) = day): 1 (31)
Survivors (P388 leukemia; 0.02 ml of 10 mg/ml Fetuin ip for 10 days, bracket (29) = day): 1 (29)
Survivors (P388 leukemia; 0.2 ml of 10 mg/ml Fetuin ip for 10 days (highest dose), bracket (58) = day, listed as Fetal fetuin): 8
(ILS) Increased Life Span (P388 leukemia; 0.002 ml of 10 mg/ml Fetuin ip for 10 days): 29%
(ILS) Increased Life Span (P388 leukemia; 0.02 ml of 10 mg/ml Fetuin ip for 10 days): 17.2%
(ILS) Increased Life Span (P388 leukemia; 0.2 ml of 10 mg/ml Fetuin ip for 10 days (highest dose)): 141%
apoptosis in normal cell lines (normal cell lines): not the normal cell lines
cell surface density of s-Ig on the B-cells [3]: no significant differences
fraction of lymphocytes which were B-cells (s-Ig+) [3]: no differences between treatment groups
fraction of splenic lymphocyte that were T-cells [3]: remained constant
mean level of expression of Thy 1.2 [3]: did not differ significantly
